Experimental data published in article PMC8590286, “A novel CD123-targeted therapeutic peptide loaded by micellar delivery system combats refractory acute myeloid leukemia” (Journal of Hematology & Oncology, 2021).
Counter-ions that a name gives are not always drawn.

Tests used:
AE & CKIT^D816V mice = test: Survival experiments of Ara-C or HHT in AE & CKIT^D816V AML mice; type: in vivo, mouse; settings: for median survival of AML mice treated with Ara-C: 25, 50 and 100 mg/kg i.p. daily for 4 days from day 9, versus Con, n=9; for median survival of AML mice treated with HHT: 250 μg/kg i.p. every 2 days from day 9, n=8
Description: The regimen of cytarabine hydrochloride (Ara-C): On day 9 after AE & CKIT^D816V cells implantation, the mice were randomly divided into 4 groups (n=9) including Con (5% glucose), 25, 50 and 100 mg/kg Ara-C. All mice were treated with daily intraperitoneal (i.p.) injections for 4 days and stopped. The survival of the mice was recorded every day.
The regimen of homoharringtonine (HHT): On day 9 after AE & CKIT^D816V cells implantation, the mice were randomly divided into 2 groups (n=8) and i.p. injected with 5% glucose and 250 μg/kg HHT. The administration was given every 2 days. The survival of the mice was recorded every day.
Fig. S7. Therapeutic efficacy of Ara-C or HHT in AE & CKIT^D816V mice. (A) The median survival of AML mice treated with Ara-C was not prolonged compared with the Con group (n=9). […] On day 9 after AE & CKIT^D816V cells implantation, AML mice were treated with i.p. injection of 5% glucose, Ara-C (25, 50 and 100 mg/kg) or HHT (250 μg/kg) as the regimens described.

[1] = test system: CD123^− AML cell line HL-60; test: Flow cytometry binding of FITC-labeled peptide to HL-60 cells; type: cell-based, human; settings: 0.1 and 0.5 μM, 0.5 h
Description: (§1) Fig. S1. Affinity of PO-6 and ^mPO-6 to different leukemia cells. The MOLM-13, K562 or HL-60 cells was incubated with PO-6 or ^mPO-6 at 0.1 and 0.5 μM for 0.5 h. Resulting cells were collected and subjected to C6 Accuri® flow cytometer.
(§2) MOLM-13, HL-60 and K562 cells of 4×10^5/mL were incubated with FITC-labeled PO-6 or ^mPO-6 at 0.1 μM and 0.5 μM for 0.5 h. After twice washed with PBS, subjected to C6 Accuri® flow cytometer (Accuri Cytometers, Ann Arbor, MI) and 1×10^4 cells were collected. Acquired data were analyzed by CFlow Plus software.

[2] = test system: chronic myeloid leukemia cell line K562 cells; test: Flow cytometry binding of FITC-labeled peptide to K562 cells; type: cell-based, human; settings: 0.1 and 0.5 μM, 0.5 h
Description: as §1, §2

[3] = test system: CD123^+ AML cell line MOLM-13 cells; test: Flow cytometry binding of FITC-labeled peptide/micelles to MOLM-13 cells; type: cell-based, human; settings: 0.1 and 0.5 μM, 0.5 h
Description: Fig. 1 A Affinity of ^mPO-6 to MOLM-13 cells incubated at 0.1 and 0.5 μM for 0.5 h. B Images of ^mPO-6 bound with MOLM-13 cells at 0.1 μM for 0.5 h obtained from the laser confocal microscopy. C Effects of ^mPO-6 on the cell viability in the presence of IL-3 (n = 4). D and E Effects of ^mPO-6 on the cell viability of the primary AML blasts.
as §1, §2

Nc1ccn([C@@H]2O[C@H](CO)[C@@H](O)[C@@H]2O)c(=O)n1 [cytarabine hydrochloride]
median survival of AML mice treated with Ara-C (AE & CKIT^D816V mice): did not respond
median survival of AML mice treated with Ara-C (AE & CKIT^D816V mice; listed as Ara-C): not prolonged

COC(=O)C[C@](O)(CCCC(C)(C)O)C(=O)O[C@@H]1C(OC)=C[C@]23CCCN2CCc2cc4c(cc2[C@H]13)OCO4 [homoharringtonine]
median survival of AML mice treated with HHT (AE & CKIT^D816V mice): did not respond
median survival of AML mice treated with HHT (AE & CKIT^D816V mice; listed as HHT): did not prolong the AML mice median survival significantly

DDDYDTRAQGTDIGCDFRRISDDD [PO-6]
binding to HL-60 cells [1]: weakly bind
binding to K562 cells [2]: weakly bind
binding to MOLM-13 cells [3]: effectively bind
